# From PMC9743467 (Matter, 2022)
# Tests used:
# [1] = test system: SARS-CoV-2 PsV; format: cell-based
# [2] = test system: SARS-CoV PsV; format: cell-based
# [3] = test system: VSV-G PsV; format: cell-based, vesicular stomatitis virus
# [4] = test system: SARS-CoV-2 PsV; format: cell-based; remark: listed apart in the source
# [5] = test system: SARS-CoV-2 (USA-WA1/2020); format: in vivo, K18-hACE2 mice infected with SARS-CoV-2; conditions: n = 8
# [6] = format: in vivo, K18-hACE2 mice; conditions: n = 8
# [7] = source not given; cited from earlier work
substance,measurement,setting,value
"ACE2: recombinant human angiotensin-converting enzyme 2, soluble, R&D Systems",inhibition of SARS-CoV-2 PsV infection,[1],strongly inhibited
same,inhibition of SARS-CoV PsV infection,[2],strongly inhibited
same,inhibition of VSV-G PsV infection,[3],This trend is not observed
same,time at which inhibition equals that of empty filaments,[4],≤ 6 h
same,viral load in SARS-CoV-2-infected lungs,[5],negligible effect on viral load
same,body weight loss,[6],similar
same,pI,[7],≈ 5.36
